# Assay results as given in patent publication US9789116B2, “Compositions and methods of modulating short-chain dehydrogenase activity” (CASE WESTERN RESERVE UNIVERSITY, priority 2013, dated 2017).
# Entries after “also recorded” stand apart in the source; their conditions may differ.
# Key:
# [1] = system: C57BL/6J mice irradiated with 11Gy; test: Survival of irradiated mice receiving marrow allograft (Example 6); format: in vivo, mouse; conditions: cohort of 3
# Excerpt: The experimental design is depicted in FIG. 50.
# Under the conditions of the mouse colony during this study, control mice receiving 100,000-500,000 cells are all dead between days 4-13 of study. […] Such activity would be of particular utility in settings, such as transplantation with umbilical cord stem cells, in which donor cell numbers are limited.
# FVB mice [2] = test: Liver regeneration after partial hepatectomy, FVB mice; format: in vivo, mouse
# A549 cells = test: PGE2 levels in medium of IL1-beta stimulated A549 cells; format: cell-based; conditions: IL1-beta 23 hours, compound added for the last 5 hours
# [3] = system: bone marrow SKL cells and stromal cells; test: Gene expression in bone marrow SKL and CD45(-) stromal cells of treated mice; format: in vivo, mouse
# Method: 2 hours following the last dose bone marrow is harvested and sorted into SKL marked cells that are hematopoietic stem cell enriched and into CD45 (−) cells that are bone marrow stroma cells. RNA was extracted and gene expression determined relative to levels in mice injected with vehicle control.
# FVB mice [4] = test: Toxicity study in FVB mice, daily weights; format: in vivo, mouse; conditions: 5 mg/kg IP twice daily for 21 days, N=6
# C57BL/6J mice = test: Liver regeneration after partial hepatectomy, C57BL/6J mice; format: in vivo, mouse
# cell culture = test: Toxicity in a cell culture assay (decrease of cell numbers); format: cell-based; conditions: concentration needed to decrease cell numbers in a cell culture assay
# Method: Time to inhibition refers to the time needed to inhibit the generation of NADH by 15-PGDH from the moment with drug is added into the reaction mix. Delta Tm refers to the shift in melting temperature of recombinant 15-PGDH in the presence of drug (with cofactor NADH also present). Concentration of Full Cell Line Reporter Induction refers to the concentration of drug that needs to be added to reporter cell line to achieve maximal induction of the 15-PGDH-luciferase gene fusion reporter cassette, as measured by luciferase assays. Hepatocyte stability refers to the half-life of compound in the presence of hepatocytes in culture. Toxicity refers to the concentration of compound needed to decrease cell numbers in a cell culture assay.
# C57BL/6J female mice = test: Survival following acetaminophen (Tylenol) overdose; format: in vivo, mouse;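 also: control animals received vehicle only, given on a once or twice daily schedule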
smiles,measurement,setting,value
"CCCC[S+]([O-])c1sc2nc(-c3cccs3)cc(-c3ccccc3)c2c1N (centres unmarked) [SW033291, 2-(butylsulfinyl)-4-phenyl-6-(thiophen-2-yl)thieno[2,3-b]pyridin-3-amine]",Number of mice surviving,"[1]; 1 × 10^5 cells, Day 1",3
same,Number of mice surviving,"[1]; 1 × 10^5 cells, Day 2",3
same,Number of mice surviving,"[1]; 1 × 10^5 cells, Day 3",3
same,Number of mice surviving,"[1]; 1 × 10^5 cells, Day 4",2
same,Number of mice surviving,"[1]; 1 × 10^5 cells, Day 5",1
same,Number of mice surviving,"[1]; 1 × 10^5 cells, Day 6",0
same,Number of mice surviving,"[1]; 2 × 10^5 cells, Day 1",3
same,Number of mice surviving,"[1]; 2 × 10^5 cells, Day 2",3
same,Number of mice surviving,"[1]; 2 × 10^5 cells, Day 3",3
same,Number of mice surviving,"[1]; 2 × 10^5 cells, Day 4",3
same,Number of mice surviving,"[1]; 2 × 10^5 cells, Day 5",3
same,Number of mice surviving,"[1]; 2 × 10^5 cells, Day 6",2
same,Number of mice surviving,"[1]; 2 × 10^5 cells, Day 7",2
same,Number of mice surviving,"[1]; 2 × 10^5 cells, Day 8",2
same,Number of mice surviving,"[1]; 2 × 10^5 cells, Day 9",2
same,Number of mice surviving,"[1]; 2 × 10^5 cells, Day 10",2
same,Number of mice surviving,"[1]; 2 × 10^5 cells, Day 11",2
same,Number of mice surviving,"[1]; 2 × 10^5 cells, Day 12",1
same,Number of mice surviving,"[1]; 2 × 10^5 cells, Day 13",0
same,Number of mice surviving,"[1]; 5 × 10^5 cells, Day 1",3
same,Number of mice surviving,"[1]; 5 × 10^5 cells, Day 2",3
same,Number of mice surviving,"[1]; 5 × 10^5 cells, Day 3",3
same,Number of mice surviving,"[1]; 5 × 10^5 cells, Day 4",3
same,Number of mice surviving,"[1]; 5 × 10^5 cells, Day 5",3
same,Number of mice surviving,"[1]; 5 × 10^5 cells, Day 6",3
same,Number of mice surviving,"[1]; 5 × 10^5 cells, Day 7",3
same,Number of mice surviving,"[1]; 5 × 10^5 cells, Day 8",2
same,Number of mice surviving,"[1]; 5 × 10^5 cells, Day 9",2
same,Number of mice surviving,"[1]; 5 × 10^5 cells, Day 10",2
same,Number of mice surviving,"[1]; 5 × 10^5 cells, Day 11",2
same,Number of mice surviving,"[1]; 5 × 10^5 cells, Day 12",2
same,Number of mice surviving,"[1]; 5 × 10^5 cells, Day 13",2
same,BrdU positive (S-phase) cells in liver,FVB mice [2]; post-operative day 2,clear increase in numbers of BrdU positive cells
same,increase in median S-phase cells,"FVB mice [2]; post-operative day 2, P<0.05",greater than 2 fold
same,greater liver weight than control mice,FVB mice [2]; post-operative day 7,approximately 25%
same,15-PGDH activity in cells as reflected in PGE2 levels in medium,A549 cells,clear inhibition of 15-PGDH activity in the cells
same,induction of CXCL12,[3],greater than 4 fold
same,induction of SCF,[3],greater than 4 fold
same,mouse weight gain,FVB mice [4],no evidence for SW033291 reducing mouse weight
same,mitosis per high powered field in liver,"C57BL/6J mice; 5 mg/kg IP daily, post-operative days 3 and 4",significantly increased hepatic mitosis; also recorded: significantly increased numbers of mitotic liver cells
same,serum ALT levels,"C57BL/6J mice; one mouse each, 5 mg/kg IP bid, post-operative days 1-7",lower
same,Toxicity,cell culture,>10 µM
same,Number of mice surviving,"C57BL/6J female mice; 5 mg/kg 1 dose/daily, first dose immediately after Tylenol, 16 hr, cohort of 6",6
same,Number of mice surviving,"C57BL/6J female mice; 5 mg/kg 1 dose/daily, first dose immediately after Tylenol, 24 hrs, cohort of 6",6
same,Number of mice surviving,"C57BL/6J female mice; 5 mg/kg 2 dose/daily, first dose immediately after Tylenol, 16 hr, cohort of 6",6
same,Number of mice surviving,"C57BL/6J female mice; 5 mg/kg 2 dose/daily, first dose immediately after Tylenol, 24 hrs, cohort of 6",6
same,Number of mice surviving,"C57BL/6J female mice; 5 mg/kg 2 dose/daily, first dose immediately after Tylenol, 48 hrs, cohort of 6",3
same,Number of mice surviving,"C57BL/6J female mice; 5 mg/kg 2 dose/daily, first dose immediately after Tylenol, 64 hrs, cohort of 6",3
same,Number of mice surviving,"C57BL/6J female mice; 5 mg/kg 2 dose/daily, first dose immediately after Tylenol, 72 hrs, cohort of 6",3
same,Number of mice surviving,"C57BL/6J female mice; 5 mg/kg 2 dose/daily, first dose immediately after Tylenol, 88 hr, cohort of 6",3
same,Number of mice surviving,"C57BL/6J female mice; 5 mg/kg 2 dose/daily, first dose immediately after Tylenol, 96 hr, cohort of 6",3
same,Number of mice surviving,"C57BL/6J female mice; 5 mg/kg 2 dose/daily, first dose immediately after Tylenol, 112 hr, cohort of 6",3
same,Number of mice surviving,"C57BL/6J female mice; 5 mg/kg 2 dose/daily, first dose immediately after Tylenol, 120 hr, cohort of 6",3
same,survival versus control mice,"C57BL/6J female mice; 5 mg/kg IP begun immediately following acetaminophen, once or twice daily, through 120 hours",No difference
same,protection from acetaminophen lethality,"C57BL/6J female mice; 5 mg/kg IP bid beginning 48 hours prior to acetaminophen, 9 doses",protects from the lethal hepatotoxicity of acetaminophen
same,Number of mice surviving,"C57BL/6J female mice; 5 mg/kg bid from 3 hours prior to acetaminophen, 6 doses, 16 hr, cohort of 6",6
same,Number of mice surviving,"C57BL/6J female mice; 5 mg/kg bid from 3 hours prior to acetaminophen, 6 doses, 24 hrs, cohort of 6",5
same,Number of mice surviving,"C57BL/6J female mice; 5 mg/kg bid from 3 hours prior to acetaminophen, 6 doses, 48 hrs, cohort of 6",3
same,Number of mice surviving,"C57BL/6J female mice; 5 mg/kg bid from 3 hours prior to acetaminophen, 6 doses, 64 hrs, cohort of 6",3
same,Number of mice surviving,"C57BL/6J female mice; 5 mg/kg bid from 3 hours prior to acetaminophen, 6 doses, 72 hrs, cohort of 6",3
same,Number of mice surviving,"C57BL/6J female mice; 5 mg/kg bid from 3 hours prior to acetaminophen, 6 doses, 88 hr, cohort of 6",3
same,Number of mice surviving,"C57BL/6J female mice; 5 mg/kg bid from 3 hours prior to acetaminophen, 6 doses, 96 hr, cohort of 6",3
same,Number of mice surviving,"C57BL/6J female mice; 5 mg/kg bid from 3 hours prior to acetaminophen, 6 doses, 112 hr, cohort of 6",3
same,Number of mice surviving,"C57BL/6J female mice; 5 mg/kg bid from 3 hours prior to acetaminophen, 6 doses, 120 hr, cohort of 6",3
same,Number of mice surviving,"C57BL/6J female mice; 5 mg/kg bid from 48 hours prior to acetaminophen, 9 doses, 16 hr, cohort of 12",12
same,Number of mice surviving,"C57BL/6J female mice; 5 mg/kg bid from 48 hours prior to acetaminophen, 9 doses, 24 hrs, cohort of 12",12
same,Number of mice surviving,"C57BL/6J female mice; 5 mg/kg bid from 48 hours prior to acetaminophen, 9 doses, 40 hrs, cohort of 12",11
same,Number of mice surviving,"C57BL/6J female mice; 5 mg/kg bid from 48 hours prior to acetaminophen, 9 doses, 48 hrs, cohort of 12",10
same,Number of mice surviving,"C57BL/6J female mice; 5 mg/kg bid from 48 hours prior to acetaminophen, 9 doses, 64 hrs, cohort of 12",10
same,Number of mice surviving,"C57BL/6J female mice; 5 mg/kg bid from 48 hours prior to acetaminophen, 9 doses, 72 hrs, cohort of 12",10
same,Number of mice surviving,"C57BL/6J female mice; 5 mg/kg bid from 48 hours prior to acetaminophen, 9 doses, 88 hr, cohort of 12",10
same,Number of mice surviving,"C57BL/6J female mice; 5 mg/kg bid from 48 hours prior to acetaminophen, 9 doses, 96 hr, cohort of 12",10
same,Number of mice surviving,"C57BL/6J female mice; 5 mg/kg bid from 48 hours prior to acetaminophen, 9 doses, 112 hr, cohort of 12",10
same,Number of mice surviving,"C57BL/6J female mice; 5 mg/kg bid from 48 hours prior to acetaminophen, 9 doses, 120 hr, cohort of 12",10
